The values that follow come from US11464770B2, “Anticancer pharmaceutical composition” (NATIONAL CANCER CENTER, priority 2016, dated 2022).

The IC50 is the midpoint of a concentration-inhibition curve.

In experiment [1] the test system is bladder cancer cell lines. In words: Cell based assay, cell viability (CellTiter-Glo), bladder cancer cell lines. The conditions noted are these: 72 hours treatment, 0 to 2 μM, CellTiter-Glo. Here is the method:
(§1) Commercially available bladder cancer, prostate cancer, lung cancer, breast cancer, blood cancer, pancreatic cancer, colorectal cancer, brain cancer, neuroblastoma, melanoma, liver cancer, cervical carcinoma, ovarian cancer, renal cancer, and papilloma cell lines were each treated with trypsin-EDTA and cultured, followed by being seeded in each well of a 96 well plate. After 24 hours of treatment at constant temperature, the respective cells were treated with the candidate compound so that a final concentration became 0 to 2 μM. The treated cells were additionally cultured for 72 hours, and cell viability was measured by using an ATP detection method (CellTiter-Glo® Luminescent Cell Viability Assay, Promega).
Background: ATP-based viability assays read luminescence as a measure of living cells.

The next experiment concerns melanoma cell lines. The experiment in a line: Cell based assay, cell viability (CellTiter-Glo), melanoma cell lines. The conditions noted are these: Homo sapiens; LOX-IMVI cell line. Here is the method:
as §1

The subject of the next experiment is liver cancer cell lines. In words: Cell based assay, cell viability (CellTiter-Glo), liver cancer cell lines. The conditions noted are these: Homo sapiens, SK-HEP1; SK-HEP-1 cell line. Here is the method:
as §1

Setting [2] is: 253J cells, read-out: IC50, bladder cancer cell line 253J.
Where [3] appears, read: 5637 cells, read-out: IC50, bladder cancer cell line 5637.
Where [4] appears, read: Homo sapiens, T-24, T24 cells, read-out: IC50, bladder cancer cell line T24.
[5] abbreviates: Homo sapiens, UMUC3, UM-UC-3 cells, read-out: IC50, bladder cancer cell line UM-UC-3.
Where [6] appears, read: Homo sapiens, J82 cells, read-out: IC50, bladder cancer cell line J82.
The mark [7] stands for this setting: Homo sapiens, KU-19-19 cells, read-out: IC50, bladder cancer cell line KU-19-19.
[8] abbreviates: MBT-2 cells, read-out: IC50, bladder cancer cell line MBT-2.

The structures appear in SMILES notation. Read-outs that look alike come from different tables or passages of the source.

As to `CC(=O)c1c([S+](C)[O-])n(Cc2ccc(F)c(Cl)c2)c2c(Br)ccc(Cl)c2c1=O` (stereo not shown) [Compound 22, 3-acetyl-8-bromo-5-chloro-1-(3-chloro-4-fluorobenzyl)-2-(methylsulfinyl)quinolin-4(1H)-one], the 50% inhibitory concentration (IC50) in experiment [1] (setting [2]), in experiment [1] (setting [3]), in experiment [1] (setting [4]), in experiment [1] (setting [5]), in experiment [1] (setting [6]) and in experiment [1] (setting [7]) was over 2000 nM each time. The IC50 (in experiment [1] (setting [8]); in the experiment with melanoma cell lines; in the experiment with liver cancer cell lines) was over 2000 nM each time.
`CC(=O)c1c([S+]([O-])c2ccccc2)[nH]c2c(Br)ccc(Cl)c2c1=O` (stereo not shown) [Compound 13, 3-acetyl-8-bromo-5-chloro-2-(phenylsulfinyl)quinolin-4(1H)-one]: the IC50 (in experiment [1] (setting [2]); in experiment [1] (setting [3]); in experiment [1] (setting [4]); in experiment [1] (setting [6]); in the experiment on melanoma cell lines; in the experiment with liver cancer cell lines) was over 2000 nM in each case.
Take `CC(=O)c1c([S+]([O-])Cc2nonc2C)[nH]c2c(Br)ccc(Cl)c2c1=O` (stereo not shown) [Compound 106, 3-acetyl-8-bromo-5-chloro-2-(((4-methyl-1,2,5-oxadiazol-3-yl)methyl)sulfinyl)quinolin-4(1H)-one]: the IC50 (in experiment [1] (setting [2]); in experiment [1] (setting [3]); in experiment [1] (setting [4]); in experiment [1] (setting [6]); in the experiment on melanoma cell lines; with liver cancer cell lines) was over 2000 nM each time.
As to `CC(=O)c1c([S+]([O-])Cc2ccc(S(F)(F)(F)(F)F)cc2F)[nH]c2c(Br)ccc(Cl)c2c1=O` (stereo not shown) [Compound 69, 3-acetyl-8-bromo-5-chloro-2-((2-fluoro-4-(pentafluoro-16-sulfanyl)benzyl)sulfinyl)quinolin-4(1H)-one], the IC50 came to 1080 nM in experiment [1] (setting [2]); 1620 nM in experiment [1] (setting [3]); 1500 nM in experiment [1] (setting [4]); 1200 nM in experiment [1] (setting [5]); 1890 nM in experiment [1] (setting [6]); 1500 nM in experiment [1] (setting [7]). The IC50 came to 1260 nM in experiment [1] (setting [8]), 1120 nM with melanoma cell lines and 1040 nM in the experiment on liver cancer cell lines.
`CC(=O)c1c(SCc2cccc(I)c2)[nH]c2c(Br)ccc(Cl)c2c1=O` [Compound 47, 3-acetyl-8-bromo-5-chloro-2-((3-iodobenzyl)thio)quinolin-4(1H)-one]: the IC50 in experiment [1] (setting [2]), in experiment [1] (setting [3]), in experiment [1] (setting [4]), in experiment [1] (setting [5]), in experiment [1] (setting [6]) and in experiment [1] (setting [7]) was over 2000 nM in each case. The IC50 (in experiment [1] (setting [8]); with melanoma cell lines; in the experiment on liver cancer cell lines) was over 2000 nM each time.
As for `CC(=O)c1c(SCc2cccc(F)c2)[nH]c2c(Br)ccc(Cl)c2c1=O` [Compound 49, 3-acetyl-8-bromo-5-chloro-2-((3-fluorobenzyl)thio)quinolin-4(1H)-one], the IC50 in experiment [1] (setting [2]), in experiment [1] (setting [3]), in experiment [1] (setting [4]), in experiment [1] (setting [5]), in experiment [1] (setting [6]) and in experiment [1] (setting [7]) was over 2000 nM throughout. In addition, the half-maximal inhibitory concentration (IC50) (in experiment [1] (setting [8]); in the experiment with liver cancer cell lines) was over 2000 nM each time.
For `CC(=O)c1c(Sc2ccccc2)[nH]c2c(Br)ccc(Cl)c2c1=O` [Compound 12, 3-acetyl-8-bromo-5-chloro-2-(phenylthio)quinolin-4(1H)-one], the concentration for half-maximal inhibition (IC50) in experiment [1] (setting [2]), in experiment [1] (setting [3]), in experiment [1] (setting [4]), in experiment [1] (setting [5]), in experiment [1] (setting [6]) and in experiment [1] (setting [7]) was over 2000 nM throughout. In addition, the half-maximal inhibitory concentration (IC50) (in experiment [1] (setting [8]); in the experiment with melanoma cell lines; in the experiment on liver cancer cell lines) was over 2000 nM in each case.
For `Cc1cc(C[S+]([O-])c2[nH]c3c(Br)ccc(Cl)c3c(=O)c2C(=O)C2CC2)no1` (stereo not shown) [Compound 96, 8-bromo-5-chloro-3-(cyclopropanecarbonyl)-2-(((5-methylisoxazol-3-yl)methyl)sulfinyl)quinolin-4(1H)-one], the concentration for half-maximal inhibition (IC50) is over 2000 nM in experiment [1] (setting [3]); 1660 nM in experiment [1] (setting [4]); over 2000 nM in experiment [1] (setting [6]); over 2000 nM in the experiment with melanoma cell lines; 1960 nM in the experiment with liver cancer cell lines.
Consider `CC(=O)c1c([S+]([O-])Cc2cccc(I)c2)[nH]c2c(Br)ccc(Cl)c2c1=O` (stereo not shown) [Compound 48, 3-acetyl-8-bromo-5-chloro-2-((3-iodobenzyl)sulfinyl)quinolin-4(1H)-one], for which the IC50 (in experiment [1] (setting [2]); in experiment [1] (setting [3]); in experiment [1] (setting [4]); in experiment [1] (setting [6]); with melanoma cell lines; in the experiment with liver cancer cell lines) was over 2000 nM each time.
